PubChem BioAssay AID1963875 (Molecular Pharmacology Branch, DTP, NCI, 2024)

Test system: KRAS-mutant PDC complex spheroid viability
Test: Anticancer human tumor 186277-243-T-J2-PDC patient-derived colon adenocarcinoma cell line growth inhibition [KRAS2]
Details: for IC50: curve of first compound; for viability, T/C: stronger effect = lower value
Summary of the method: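 Combination screen of spheroid viability in tumor-cell co-cultures with endothelial (HUVEC) and mesenchymal stem cell stroma. Each agent was tested in half-log dilutions, topping at clinical Cmax or at 10 microM without a known Cmax.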

[1] = second compound 0.1 µM, first compound 0.0316 µM
[2] = second compound 0.1 µM, first compound 0.1 µM
[3] = second compound 0.1 µM, first compound 0.316 µM
[4] = second compound 0.1 µM, first compound 1 µM
[5] = second compound 0.1 µM, first compound 3.16 µM
[6] = second compound 0.1 µM, first compound 10 µM
[7] = second compound 0.316 µM, first compound 0.0316 µM
[8] = second compound 0.316 µM, first compound 0.1 µM
[9] = second compound 0.316 µM, first compound 0.316 µM
[10] = second compound 0.316 µM, first compound 1 µM
[11] = second compound 0.316 µM, first compound 3.16 µM
[12] = second compound 0.316 µM, first compound 10 µM
[13] = second compound 1 µM, first compound 0.0316 µM
[14] = second compound 1 µM, first compound 0.1 µM
[15] = second compound 1 µM, first compound 0.316 µM
[16] = second compound 1 µM, first compound 1 µM
[17] = second compound 1 µM, first compound 3.16 µM
[18] = second compound 1 µM, first compound 10 µM
[19] = second compound 3.16 µM, first compound 0.0316 µM
[20] = second compound 3.16 µM, first compound 0.1 µM
[21] = second compound 3.16 µM, first compound 0.316 µM
[22] = second compound 3.16 µM, first compound 1 µM
[23] = second compound 3.16 µM, first compound 3.16 µM
[24] = second compound 3.16 µM, first compound 10 µM
[25] = second compound 10 µM, first compound 0.0316 µM
[26] = second compound 10 µM, first compound 0.1 µM
[27] = second compound 10 µM, first compound 0.316 µM
[28] = second compound 10 µM, first compound 1 µM
[29] = second compound 10 µM, first compound 3.16 µM
[30] = second compound 10 µM, first compound 10 µM
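Wherever viability, T/C is given: viability read after seven days of compound exposure; 100% = DMSO vehicle-treated spheroids so lower means less viable.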

Structure (SMILES)	IC50 (second compound 0.1 µM) [nM]	IC50 (second compound 0.316 µM) [nM]	IC50 (second compound 1 µM) [nM]	IC50 (second compound 3.16 µM) [nM]	viability, T/C [1] [%]	viability, T/C [2] [%]	viability, T/C [3] [%]	viability, T/C [4] [%]	viability, T/C [5] [%]	viability, T/C [6] [%]	viability, T/C [7] [%]	viability, T/C [8] [%]	viability, T/C [9] [%]	viability, T/C [10] [%]	viability, T/C [11] [%]	viability, T/C [12] [%]	viability, T/C [13] [%]	viability, T/C [14] [%]	viability, T/C [15] [%]	viability, T/C [16] [%]	other results
COC(=O)c1ccc2c(C(=Nc3ccc(N(C)C(=O)CN4CCN(C)CC4)cc3)c3ccccc3)c(O)[nH]c2c1 + C=CC(=O)N1CCN(c2nc(OCC3CCCN3C)nc3c2CCN(c2cccc4cccc(C)c24)C3)CC1CC#N	732	949	446	< 31.6	91.5	92.3	103	33	12.6	7.16	97.8	109	102	47.5	7.39	5.61	105	86.3	65.3	20.9	IC50 (second compound 0.0316 µM): 1890 nM; viability, T/C (second compound 0.0316 µM, first compound 0.0316 µM): 103%; viability, T/C (second compound 0.0316 µM, first compound 0.1 µM): 104%; viability, T/C (second compound 0.0316 µM, first compound 0.316 µM): 113%; viability, T/C (second compound 0.0316 µM, first compound 1 µM): 85.3%; viability, T/C (second compound 0.0316 µM, first compound 3.16 µM): 21.7%; viability, T/C (second compound 0.0316 µM, first compound 10 µM): 13.4%; viability, T/C [17]: 1.39%; viability, T/C [18]: 1.01%; viability, T/C [19]: 0.29%; viability, T/C [20]: 0.26%; viability, T/C [21]: 0.23%; viability, T/C [22]: 0.11%; viability, T/C [23]: 0.77%; viability, T/C [24]: 0.09%
COC(=O)c1ccc2c(C(=Nc3ccc(N(C)C(=O)CN4CCN(C)CC4)cc3)c3ccccc3)c(O)[nH]c2c1 + C=CC(=O)N1CCN(c2nc(=O)n(-c3c(C)ccnc3C(C)C)c3nc(-c4c(O)cccc4F)c(F)cc23)C(C)C1	2130	882	1570	462	95.6	93	94.4	104	25.4	12.7	87.5	96.1	97.7	44.6	19.7	6.92	96	92.9	102	73	IC50 (second compound 10 µM): 204 nM; viability, T/C [17]: 13.7%; viability, T/C [18]: 3.67%; viability, T/C [19]: 96.1%; viability, T/C [20]: 96.8%; viability, T/C [21]: 53.5%; viability, T/C [22]: 33.5%; viability, T/C [23]: 6.72%; viability, T/C [24]: 3.16%; viability, T/C [25]: 56.1%; viability, T/C [26]: 63.4%; viability, T/C [27]: 43.5%; viability, T/C [28]: 12.5%; viability, T/C [29]: 1.11%; viability, T/C [30]: 0.14%
Cn1nccc1Nc1nccc(-c2cc3c(s2)C(C)(C)N(CCN2CCOCC2)C3=O)n1 + CC1OCC2(CCN(c3cnc(Sc4ccnc(N)c4Cl)c(N)n3)CC2)C1N	306	219	224	176	106	107	48.3	9.06	4.04	5.66	104	114	22.5	7.68	2.95	4.77	106	114	24.3	4.22	IC50 (second compound 10 µM): 77.4 nM; viability, T/C [17]: 2.3%; viability, T/C [18]: 3.66%; viability, T/C [19]: 118%; viability, T/C [20]: 85.6%; viability, T/C [21]: 13%; viability, T/C [22]: 2.81%; viability, T/C [23]: 1.49%; viability, T/C [24]: 2.19%; viability, T/C [25]: 86.8%; viability, T/C [26]: 39.5%; viability, T/C [27]: 5.87%; viability, T/C [28]: 2.69%; viability, T/C [29]: 1.11%; viability, T/C [30]: 1.69%
